Results reported in patent US12581252B2, “Substituted pyrrolo[3,4-b]pyridines as PI3K-α inhibitors” (Relay Therapeutics, Inc., priority 2020, dated 2026).

What follows are compounds tested against H1047R PIK3CA enzyme (Homo sapiens, UniProt P42336, H1047R) (assay: ADP-Glo Biochemical PIK3CA Kinase Assay).
Chain of H1047R PIK3CA enzyme (P42336 whole entry H1047R): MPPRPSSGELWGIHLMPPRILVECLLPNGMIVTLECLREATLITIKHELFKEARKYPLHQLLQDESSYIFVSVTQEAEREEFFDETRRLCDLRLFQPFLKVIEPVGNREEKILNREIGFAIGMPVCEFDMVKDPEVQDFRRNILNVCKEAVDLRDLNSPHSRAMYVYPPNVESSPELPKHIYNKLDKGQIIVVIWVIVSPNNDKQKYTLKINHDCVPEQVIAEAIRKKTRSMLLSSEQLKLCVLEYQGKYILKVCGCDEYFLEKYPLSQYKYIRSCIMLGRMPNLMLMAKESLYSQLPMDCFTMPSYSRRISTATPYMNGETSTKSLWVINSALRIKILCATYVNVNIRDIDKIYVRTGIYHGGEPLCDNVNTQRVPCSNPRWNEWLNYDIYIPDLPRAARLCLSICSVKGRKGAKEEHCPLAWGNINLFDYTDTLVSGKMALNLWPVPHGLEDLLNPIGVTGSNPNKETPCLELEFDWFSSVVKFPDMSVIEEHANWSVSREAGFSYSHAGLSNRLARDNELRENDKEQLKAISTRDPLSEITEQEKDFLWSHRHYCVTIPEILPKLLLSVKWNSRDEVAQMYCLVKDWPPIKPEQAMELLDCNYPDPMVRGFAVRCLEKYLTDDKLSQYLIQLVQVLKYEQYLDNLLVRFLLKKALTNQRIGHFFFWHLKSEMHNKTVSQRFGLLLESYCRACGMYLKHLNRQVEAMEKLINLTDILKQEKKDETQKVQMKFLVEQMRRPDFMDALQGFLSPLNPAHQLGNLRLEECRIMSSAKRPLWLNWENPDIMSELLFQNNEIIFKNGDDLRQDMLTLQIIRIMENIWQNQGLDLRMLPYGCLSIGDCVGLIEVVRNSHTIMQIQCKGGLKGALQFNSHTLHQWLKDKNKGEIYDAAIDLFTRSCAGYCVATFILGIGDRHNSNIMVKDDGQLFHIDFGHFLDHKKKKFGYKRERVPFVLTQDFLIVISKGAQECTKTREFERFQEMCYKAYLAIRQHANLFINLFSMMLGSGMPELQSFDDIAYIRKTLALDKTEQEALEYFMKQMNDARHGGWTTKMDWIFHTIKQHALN
Chain of H1047R PIK3CA enzyme (P27986 whole entry partner): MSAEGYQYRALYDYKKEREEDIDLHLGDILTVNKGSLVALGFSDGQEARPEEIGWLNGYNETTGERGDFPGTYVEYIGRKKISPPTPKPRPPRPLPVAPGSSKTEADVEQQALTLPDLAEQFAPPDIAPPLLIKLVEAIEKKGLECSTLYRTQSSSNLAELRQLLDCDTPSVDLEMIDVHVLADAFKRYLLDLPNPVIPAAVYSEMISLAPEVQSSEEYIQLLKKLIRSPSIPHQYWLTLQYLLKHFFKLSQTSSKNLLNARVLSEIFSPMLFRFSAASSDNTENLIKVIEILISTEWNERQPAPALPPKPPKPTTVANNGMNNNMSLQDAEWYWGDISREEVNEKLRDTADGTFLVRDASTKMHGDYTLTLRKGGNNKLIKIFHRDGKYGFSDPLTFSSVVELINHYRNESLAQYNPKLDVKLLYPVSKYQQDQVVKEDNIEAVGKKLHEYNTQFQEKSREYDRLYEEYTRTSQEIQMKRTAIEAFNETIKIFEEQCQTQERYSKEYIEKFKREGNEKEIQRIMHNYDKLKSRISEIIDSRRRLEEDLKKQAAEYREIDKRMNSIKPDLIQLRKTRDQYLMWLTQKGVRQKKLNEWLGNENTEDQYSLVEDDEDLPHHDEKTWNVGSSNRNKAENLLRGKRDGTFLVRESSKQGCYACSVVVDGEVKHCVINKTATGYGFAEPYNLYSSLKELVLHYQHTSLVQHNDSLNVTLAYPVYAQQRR
`O=C(Nc1cc(-c2ccc3ocnc3n2)cc2c1C(c1cc(F)ccc1Cl)NC2=O)c1cc(F)cc(C(F)(F)F)c1` (stereo not drawn) [Compound I-1553] was tested, and the IC50 was ≤ 0.1 µM.
Work on `CC12CC3CC(F)(C1)CC(C(=O)Nc1cc(Br)cc4c1C(c1cc(F)ccc1Cl)NC4=O)(C3)C2` (stereo not drawn) [Compound I-1635] yielded an IC50 of 0.1 to 0.5 µM.
`O=C(Nc1cc(C(O)c2ccccn2)cc2c1C(c1cc(F)ccc1Cl)NC2=O)c1cc(F)cc(C(F)(F)F)c1` (stereo not drawn) [Compound I-1278] was tested, and the IC50 was ≤ 0.1 µM.
Compound `Cc1cc(=O)[nH]cc1C(=O)Nc1cc(Br)cc2c1C(c1cc(F)ccc1Cl)NC2=O` (stereo not drawn) [Compound I-1240] has an IC50 of 10 to 100 µM.
With `N#Cc1cc(NC(=O)c2cc(F)cc(C(F)(F)F)c2)c2c(c1)C(=O)N[C@@H]2c1cc(F)ccc1Cl` (single isomer, unassigned) [Compound I-770] the IC50 was ≤ 0.1 µM.
`O=C1NC(c2cc(F)ccc2Cl)c2c(NC3CCCNC3)cc(-c3ccc4ncnn4c3)cc21` (stereo not drawn) [Compound I-2158, 6-([1,2,4]triazolo[1,5-a]pyridin-6-yl)-3-(2-chloro-5-fluorophenyl)-4-(piperidin-3-ylamino)isoindolin-1-one] was tested, and the IC50 was 10 to 100 µM.
`COc1ccccc1-c1cc(NC(=O)c2cc(F)cc(C(F)(F)F)c2)c2c(c1)C(=O)NC2c1cc(F)ccc1Cl` (stereo not drawn) [Compound I-1197] gave an IC50 of 0.1 to 0.5 µM.
`Cc1ccccc1C1NC(=O)c2cccc(NC(=O)c3cnn4ccc(Cl)cc34)c21` (stereo not drawn) [Compound I-48] gave an IC50 of 1 to 10 µM.
Compound `Cc1ccccc1C1NC(=O)c2cc(C(C)C)cc(NC(=O)c3cc(F)cc(C(F)(F)F)c3)c21` (stereo not drawn) [Compound I-266, 3-Fluoro-N-[3-(2-methylphenyl)-6-(isopropyl)-1-oxo-2,3-dihydro-1H-isoindol-4-yl]-5-(trifluoromethyl)benzamide] has an IC50 of 0.1 to 0.5 µM.
For `O=C1NC(c2cc(F)ccc2Cl)c2c(Nc3n[nH]c4c(C(F)(F)F)cc(F)cc34)cc(-c3ccc4ncnn4c3)cc21` (stereo not drawn) [Compound I-2049], the IC50 was ≤ 0.1 µM.
In the case of `Cn1nc(C(F)F)cc1-c1cc(NC(=O)c2cc(F)cc(C(F)(F)F)c2)c2c(c1)C(=O)NC2c1cc(F)ccc1Cl` (stereo not drawn) [Compound I-1839], the IC50 is reported as ≤ 0.1 µM.
Compound `CC(O)(CO)c1cc(NC(=O)c2cc(F)cc(C(F)(F)F)c2)c2c(c1)C(=O)NC2c1cc(F)ccc1Cl` (stereo not drawn) [Compound I-382] has an IC50 of 0.1 to 0.5 µM.
In the case of `O=C1N[C@@H](c2cc(F)ccc2Cl)c2c(NC(=O)N3C[C@@](O)(C(F)(F)F)c4cc(F)ccc43)cc(-n3nccn3)cc21` (single isomer, unassigned) [Compound I-2571], the IC50 is reported as 1 to 10 µM.
`CC(C)C1CCN(C(=O)Nc2cccc3c2C(c2cc(F)ccc2Cl)NC3=O)C1` (mixture of isomers) [Compound I-2419] gave an IC50 of 10 to 100 µM.
For `Cc1ccccc1C1NC(=O)c2nccc(NC(=O)N3CCc4cccnc43)c21` (stereo not drawn) [Compound I-282], the IC50 was 1 to 10 µM.
`CNc1cc(NC(=O)N2C[C@@](O)(C(F)(F)F)c3cc(F)ccc32)c2c(n1)C(=O)N[C@@H]2c1cc(F)ccc1Cl` (single isomer, unassigned) [Compound I-2645] showed an IC50 of 1 to 10 µM.
With `O=C1N[C@H](c2cc(F)ccc2Cl)c2c(NC(=O)C3(c4cc(F)cc(C(F)(F)F)c4)CCCC3)cc(Br)cc21` [Compound I-2070] the IC50 was 10 to 100 µM.
With `CCn1cc(-c2cc(NC(=O)c3cc(F)cc(C(F)(F)F)c3)c3c(c2)C(=O)NC3c2cc(F)ccc2Cl)ccc1=O` (stereo not drawn) [Compound I-649] the IC50 was ≤ 0.1 µM.
For `[2H]C1([2H])N(C(=O)Nc2cccc3c2[C@@H](c2cc(F)ccc2Cl)NC3=O)c2ccc(F)cc2[C@@]1(O)C(F)(F)F` (single isomer, unassigned) [Compound I-2594], the IC50 was 1 to 10 µM.
`Cn1cc(-c2cc(NC(=O)c3cc(F)cc(C(F)(F)F)c3)c3c(c2)C(=O)NC3c2cc(F)ccc2Cl)cnc1=O` (stereo not drawn) [Compound I-1404] was tested, and the IC50 was ≤ 0.1 µM.
Work on `CN1CCN(C(=O)Nc2cc(Br)cc3c2[C@@H](c2cc(F)ccc2Cl)NC3=O)CC1(C)C` (single isomer, unassigned) [Compound I-2241] yielded an IC50 of 10 to 100 µM.
For `Cn1ccc2cc(-c3cc(NC(=O)c4cc(F)cc(C(F)(F)F)c4)c4c(c3)C(=O)NC4c3cc(F)ccc3Cl)ccc21` (stereo not drawn) [Compound I-853], the IC50 was 0.1 to 0.5 µM.
`C/S(Cc1cc(NC(=O)c2cc(F)cc(C(F)(F)F)c2)c2c(c1)C(=O)NC2c1cc(F)ccc1Cl)=N\C#N` (stereo not drawn) [Compound I-1494] was tested, and the IC50 was ≤ 0.1 µM.
In the case of `O=C(Nc1cc(-c2cn(C(F)F)cn2)cc2c1C(c1cc(F)ccc1Cl)NC2=O)c1cc(F)cc(C(F)(F)F)c1` (stereo not drawn) [Compound I-1823], the IC50 is reported as ≤ 0.1 µM.
With `O=C(Nc1cc(Br)cc2c1C(c1cc(F)ccc1Cl)NC2=O)c1cccc(Cl)c1` (stereo not drawn) [Compound I-573] the IC50 was 0.5 to 1 µM.
In the case of `Nc1ccc(Cl)c(C2NC(=O)c3cccc(NC(=O)c4cc(F)cc(C(F)(F)F)c4)c32)c1` (stereo not drawn) [Compound I-429], the IC50 is reported as 1 to 10 µM.
With `CS(=O)(=O)N1CC(c2cc(NC(=O)c3cc(F)cc(C(F)(F)F)c3)c3c(c2)C(=O)NC3c2cc(F)ccc2Cl)C1` (stereo not drawn) [Compound I-1228] the IC50 was ≤ 0.1 µM.
With `CC(C)(O)COc1cc(NC(=O)c2cc(F)cc(C(F)(F)F)c2)c2c(c1)C(=O)N[C@@H]2c1cc(F)ccc1Cl` [Compound I-739] the IC50 was 1 to 10 µM.
In the case of `CN1C[C@@H](Nc2cc(NC(=O)c3cc(F)cc(C(F)(F)F)c3)c3c(c2)C(=O)NC3c2cc(F)ccc2Cl)CC1=O` (single isomer, unassigned) [Compound I-375], the IC50 is reported as ≤ 0.1 µM.
`Cc1ccccc1C1NC(=O)c2cccc(NC(=O)c3nc(C)n4ccc(Cl)cc34)c21` (stereo not drawn) [Compound I-277, 7-Chloro-N-(1-oxo-3-(o-tolyl)isoindolin-4-yl)-3-methylimidazo[1,5-a]pyridine-1-carboxamide] was tested, and the IC50 was 10 to 100 µM.
With `Nc1cc(-c2cc(NC(=O)c3cc(F)cc(C(F)(F)F)c3)c3c(c2)C(=O)NC3c2cc(F)ccc2Cl)ncn1` (stereo not drawn) [Compound I-1089] the IC50 was ≤ 0.1 µM.
Work on `C[C@H](c1nn[nH]c1C(=O)Nc1cccc2c1[C@@H](c1cc(F)ccc1Cl)NC2=O)C(F)(F)F` (single isomer, unassigned) [Compound I-2268] yielded an IC50 of 10 to 100 µM.
Compound `Nc1cc(C(F)(F)F)cc(C(=O)Nc2cccc3c2C(c2cc(F)ccc2Cl)NC3=O)n1` (stereo not drawn) [Compound I-726] has an IC50 of 1 to 10 µM.
`N#Cc1cccc(S(=O)(=O)Cc2cc(NC(=O)c3cc(F)cc(C(F)(F)F)c3)c3c(c2)C(=O)NC3c2cc(F)ccc2Cl)c1` (stereo not drawn) [Compound I-1491] was tested, and the IC50 was ≤ 0.1 µM.
`Cc1ccccc1C1NC(=O)c2cccc(NC(=O)c3csc4c(F)cccc34)c21` (stereo not drawn) [Compound I-36] was tested, and the IC50 was 0.1 to 0.5 µM.
`NC1CN(c2cc(NC(=O)c3cc(F)cc(C(F)(F)F)c3)c3c(n2)C(=O)NC3c2cc(F)ccc2Cl)C1` (stereo not drawn) [Compound I-417] gave an IC50 of 0.1 to 0.5 µM.
Compound `O=C1NC(c2cc(F)ccc2Cl)c2c1cc(-c1ccc3ncnn3c1)cc2N1CCNCC1` (stereo not drawn) [Compound I-1908] has an IC50 of 10 to 100 µM.
For `O=C(Nc1cc(Br)cc2c1[C@@H](c1cc(Cl)ccc1Cl)NC2=O)c1cc(F)cc(C(F)(F)F)c1` [Compound I-764], the IC50 was 1 to 10 µM.
`Cn1nc(C(F)F)cc1-c1cc(NC(=O)c2cc(F)cc(C(F)(F)F)c2)c2c(c1)C(=O)N[C@H]2c1cc(F)ccc1Cl` [Compound I-1881] was tested, and the IC50 was ≤ 0.1 µM.
For `O=C(Nc1cc(N2CC(F)(F)C2)nc2c1[C@H](c1cc(F)ccc1Cl)NC2=O)c1cc(F)cc(C(F)(F)F)c1` [Compound I-366], the IC50 was ≤ 0.1 µM.
`Cn1cc(-c2cc(NC(=O)c3cc(F)cc(C(F)(F)F)c3)c3c(c2)C(=O)N[C@H]3c2cc(F)ccc2Cl)ccc1=O` (single isomer, unassigned) [Compound I-702] was tested, and the IC50 was ≤ 0.1 µM.
With `COCCNc1cc(NC(=O)c2cc(F)cc(C(F)(F)F)c2)c2c(n1)C(=O)NC2c1cc(F)ccc1Cl` (stereo not drawn) [Compound I-288] the IC50 was 0.1 to 0.5 µM.
With `O=C(Nc1cc(-c2cnn3ncnc3c2)cc2c1C(c1cc(F)ccc1Cl)NC2=O)c1cc(F)cc(C(F)(F)F)c1` (stereo not drawn) [Compound I-1824] the IC50 was ≤ 0.1 µM.
In the case of `O=C1NC(c2cc(F)ccc2Cl)c2c(NC(=O)C3CCc4ccccc4CC3)cccc21` (stereo not drawn) [Compound I-2374], the IC50 is reported as 10 to 100 µM.
Compound `O=C1NC(c2cc(F)ccc2Cl)c2c(NC(=O)C34C5C6C7C5C3C7C64)cc(Br)cc21` (stereo not drawn) [Compound I-1182] has an IC50 of 1 to 10 µM.
`CS(=O)(=O)CC(O)c1cc(NC(=O)c2cc(F)cc(Cl)c2)c2c(c1)C(=O)NC2c1cc(F)ccc1Cl` (stereo not drawn) [Compound I-297] showed an IC50 of 0.1 to 0.5 µM.
For `O=C1N[C@H](c2cc(F)ccc2Cl)c2c(NC(=O)N3C[C@@](O)(C(F)(F)F)c4cc(F)ccc43)ccc(Cl)c21` (single isomer, unassigned) [Compound I-2620], the IC50 was 1 to 10 µM.
Compound `O=C1N[C@H](c2cc(F)ccc2Cl)c2c(NC(=O)N3C[C@](O)(C(F)(F)F)c4cc(F)ccc43)cc(-n3ccccc3=O)cc21` (single isomer, unassigned) [Compound I-2531] has an IC50 of 1 to 10 µM.
Compound `O=C(Nc1cc(Br)cc2c1C(c1cc(F)ccc1Cl)NC2=O)c1cccc(SC(F)F)c1` (stereo not drawn) [Compound I-1386] has an IC50 of 1 to 10 µM.
For `CC(C)(C#N)n1cc(-c2cc(NC(=O)c3cc(F)cc(C(F)(F)F)c3)c3c(c2)C(=O)N[C@H]3c2cc(F)ccc2Cl)cn1` (racemic) [Compound I-1661], the IC50 was ≤ 0.1 µM.
Work on `CCOc1cc(C(=O)Nc2cc(Br)cc3c2C(c2cc(F)ccc2Cl)NC3=O)ccc1F` (stereo not drawn) [Compound I-556] yielded an IC50 of 1 to 10 µM.
For `O=C1NCc2c(NC(=O)c3csc4c3CCCC4)cccc21` [Compound I-404], the IC50 was 10 to 100 µM.
Work on `Cc1ccccc1C1NC(=O)c2nccc(NC(=O)c3csc4ccccc34)c21` (stereo not drawn) [Compound I-7] yielded an IC50 of 0.1 to 0.5 µM.
`O=C(Cc1c(F)ccc(F)c1F)Nc1cc(Br)cc2c1C(c1cc(F)ccc1Cl)NC2=O` (stereo not drawn) [Compound I-563] gave an IC50 of 10 to 100 µM.
For `[2H][C@@]1(c2cc(F)ccc2Cl)NC(=O)c2cc(-c3ccc4ncnn4c3)cc(NC(=O)c3cc(F)cc(C(F)(F)F)c3)c21` (single isomer, unassigned) [Compound I-1601], the IC50 was ≤ 0.1 µM.
In the case of `CC(=O)Cc1cc(NC(=O)c2cc(F)cc(C(F)(F)F)c2)c2c(c1)C(=O)N[C@@H]2c1cc(F)ccc1Cl` [Compound I-623], the IC50 is reported as ≤ 0.1 µM.
Compound `O=C1NC(c2cc(F)ccc2Cl)c2c(NC(=O)N3CCCC(O)C3)cc(-c3ccc4ncnn4c3)cc21` (stereo not drawn) [Compound I-1721] has an IC50 of 10 to 100 µM.
In the case of `O=C1Cc2cc(-c3cc(NC(=O)c4cc(F)cc(C(F)(F)F)c4)c4c(c3)C(=O)NC4c3cc(F)ccc3Cl)ccc2N1` (stereo not drawn) [Compound I-1041], the IC50 is reported as ≤ 0.1 µM.
With `N#Cc1cnn(-c2cc(NC(=O)N3C[C@@H](O)c4cc(F)ccc43)c3c(c2)C(=O)N[C@H]3c2cc(F)ccc2Cl)c1` (single isomer, unassigned) [Compound I-2405] the IC50 was ≤ 0.1 µM.
With `[2H][C@@]1(c2cc(F)ccc2Cl)NC(=O)c2cccc(NC(=O)N3C[C@](O)(C(F)(F)F)c4cc(F)ccc43)c21` (single isomer, unassigned) [Compound I-2681] the IC50 was 1 to 10 µM.
